Data taken from US12529032B2, “Methods and culture substrates for controlled induction of biomimetic neural tissues comprising singular rosette structures” (priority 2017, dated 2026).

Legend:
[1] = tested on: forebrain neuroepithelial tissues; assay: Singular neural rosette emergence in micropatterned forebrain neuroepithelial tissues, with ROCK inhibition; format: cell-based, human; conditions: for singular rosette emergence efficiency: presence of 10 μM ROCK inhibitor, 5 days
Text: (§1) NEC biomechanical properties vary by regional phenotype and affect rosette emergence behavior: The inefficient induction of singular rosette emergence in spinal neuroepithelial tissues under micropatterning conditions that were highly efficient for forebrain NECs prompted a re-examination of the optimal circular micropattern size for each regional phenotype. Moreover, we investigated how altering the biomechanical properties of each regional neuroepithelial tissue, by partial inhibition of the Rho-associated protein kinase (ROCK), would affect which micropattern size induced optimal singular rosette emergence. D-1 hESCs and 72-hr caudalized NMPs were seeded at 100,000 and 250,000 cells/cm^2, respectively, onto 150 (0.018 mm^2), 180 (0.025 mm^2), 200 (0.031 mm^2), 250 (0.049 mm^2), and 400 μm (0.126 mm^2) diameter circular micropattern arrays to generate forebrain and spinal neuroepithelial tissues (FIGS. 6A-6B and 6D-6E). […] Similar to our previous results, the efficiency of singular neural rosette emergence for forebrain tissues peaked at 85% on 250 μm (0.049 mm^2) diameter circular micropatterns (FIG. 6C). However, in the presence vs. absence of ROCK inhibitor, the efficiency curve shifted leftward inducing singular rosette emergence in 75% vs. 0% of 150 μm (0.018 mm^2), 89% vs. 50% of 180 μm (0.025 mm^2), 87% vs. 58% of 200 μm (0.031 mm^2), and 11% vs. 85% of 250 μm (0.049 mm^2) diameter forebrain neuroepithelial tissues, respectively.
Generation of Micropatterned Forebrain Neural Tissues: WA09 or HUES3 Hb9::GFP hESCs were maintained in Essential 8 medium (E8) on MATRIGEL™-coated TCPS plates and routinely passaged with Versene (Thermo Fisher). NEC derivation from hPSCs was performed in accordance with the E6 protocol (23). To generate NEC-derived micropatterned tissues at various stages of neural derivation, cells were first rinsed with PBS, dissociated with Accutase (Thermo Fisher) for 5 minutes at 37° C., and collected via centrifugation at 1000 rpm for 5 minutes. Singularized NECs were re-suspended in E6 media with 10 μM ROCK inhibitor (Y27632; R&D Systems) and seeded onto micropatterned substrates at 75,000 cells/cm^2 in 2 mL of media per well. The following day the media was replaced with 2 mL of E6 media and 50% media changes were performed daily thereafter. Alternatively, to generate hPSC-derived micropatterned tissues, hPSC cultures at ˜85% confluency were rinsed with PBS, dissociated with Accutase for 5 minutes at 37° C. and collected via centrifugation at 1000 rpm for 5 minutes. Singularized hPSCs were then suspended in E8 media with 10 μM ROCK inhibitor and seeded onto micropatterned substrates at 100,000 cells/cm^2 in 2 mL of media per well. The following day the media was replaced with 2 mL of E6 media and 50% media changes were performed daily thereafter.
Immunocytochemistry and Microscopy: Micropatterned tissues were rinsed with PBS and fixed with 4% paraformaldehyde (PFA, Sigma Aldrich) in PBS for 10 minutes at room temperature. Following three rinses with phosphate buffered saline (PBS), the micropatterned substrates were blocked and permeabilized in PBS with 5% Donkey Serum and 0.3% Triton X-100 (TX100; Thermo Fisher) (PBS-DT) for 1 hour at room temperature. Next, the tissues were incubated with primary antibodies diluted in PBS-DT for 2 hours at room temperature or overnight at 4° C. Then, the substrates were rinsed in PBD-DT 3 times for 15 minutes each. Secondary antibodies were diluted in PBS-DT and exposed to the tissues for 1 hour at room temperature. Tissue nuclei were subsequently stained with 300 nM 4′,6-diamidino-2-phenylindoldihydrochloride (DAPI, Sigma Aldrich) for 30 minutes followed by three 15 minute PBS washes. The micropatterned substrates were mounted on glass coverslips using Prolong Gold Antifade Reagent (Thermo Fisher). […]

[2] = tested on: spinal neuroepithelial tissues; assay: Singular neural rosette emergence in micropatterned spinal neuroepithelial tissues, with ROCK inhibition; format: cell-based, human; conditions: for effect on ability to form neural rosettes: 10 μM ROCK inhibitor, 5 days, spinal neuroepithelial tissues, dihydrochloride
Text: as §1
Generation of Micropatterned Spinal Cord Neuroepithelial Tissues: Caudalization of hPSC-derived cultures to generate micropatterned neuroepithelial tissues of the cervical/thoracic spinal cord was performed using a modified version of the deterministic HOX patterning protocol (36). Human PSCs were dissociated with Accutase and seeded onto MATRIGEL™-coated, 6-well TCPS plates at 150,000 cells/cm^2 in E8 media comprising 10 μM ROCK inhibitor. […]

With `C[C@@H](N)[C@H]1CC[C@H](C(=O)Nc2ccncc2)CC1.Cl.Cl` [ROCK inhibitor, (+)-(R)-trans-4-(1-aminoethyl)-N-(4-pyridyl)cyclohexanecarboxamide dihydrochloride] the “effect on rosette formation capacity” value ([1]; 10 μM Rock inhibitor, forebrain NECs) was “only partially diminish”, the “NEC density in presence vs. absence of ROCK inhibitor” value ([1]; forebrain tissues of a given micropattern size, 10 μM) was “did not vary significantly” and the “singular rosette emergence efficiency” value ([1]; 150 μm (0.018 mm^2) diameter circular micropatterns) was 75%. The “singular rosette emergence efficiency” value ([1]; 180 μm (0.025 mm^2) diameter circular micropatterns) was 89%, the “singular rosette emergence efficiency” value ([1]; 200 μm (0.031 mm^2) diameter circular micropatterns) was 87% and the “singular rosette emergence efficiency” value ([1]; 250 μm (0.049 mm^2) diameter circular micropatterns) was 11%. The “effect on ability to form neural rosettes” value [2] was “completely abolished their ability form neural rosettes”, the “effect on ability to form neural rosettes” value ([2]; listed as Rock inhibitor) was “fully eliminate” and the “NEC density in presence vs. absence of ROCK inhibitor” value ([2]; spinal tissues of a given micropattern size, 10 μM) was “did not vary significantly”.
